Assay results taken from US20230295115A1, “SUBSTITUTED ISOQUINOLINYLMETHYL AMIDES, ANALOGUES THEREOF, AND METHODS USING SAME” (priority 2020, published 2023).
Where two headings read alike, the source gives them in different places.

System: HBV rcDNA
Assay: HepDE19 assay with bDNA quantitation of HBV rcDNA
Type: cell-based, hepatitis B virus (HBV)
How it was run: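 HepDE19 cells were switched to tetracycline-free medium and exposed to compound (0.5% DMSO final) for 7 days at 37° C. rcDNA was then quantified by bDNA with an HBV-specific probe set. In parallel, viability was read as ATP content (CellTiter-Glo) after 4 days on replicate plates.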

[1] = HepDE19 cells, 7 day incubation, rcDNA measured by Quantigene 2.0 bDNA assay, top concentration 25 μM, read-out: DE-19bDNA EC50
[2] = Hepatitis B virus, HepDE19, 168 h, HepDE19 cells, 7 day incubation, rcDNA measured by Quantigene 2.0 bDNA assay, top concentration 25 μM, read-out: DE-19bDNA EC50

Row | Compound | EC50 [1] | further results
1 | CC(c1c[nH]c(=O)c2cc(F)c(F)cc12)N(C)C(=O)c1cc2ccccc2[nH]1 (single isomer, unassigned) [Compound 1, N-(1-(6,7-Difluoro-1-oxo-1,2-dihydroisoquinolin-4-yl)ethyl)-N-methyl-1H-indole-2-carboxamide] | 2.5 µM | –
2 | CC(c1c[nH]c(=O)c2cc(F)c(F)cc12)N(C)C(=O)C(=O)Nc1ccc(F)c(Cl)c1 (racemic) [Compound 144, N1-(3-Chloro-4-fluorophenyl)-N2-(1-(6,7-difluoro-1-oxo-1,2-dihydroisoquinolin-4-yl)ethyl)-N2-methyloxalamide] | – | EC50 [2]: 1.44 µM
3 | CC(c1c[nH]c(=O)c2cc(F)c(F)cc12)N(C)C(=O)c1cc2ccccc2o1 (single isomer, unassigned) [Compound 25, N-(1-(6,7-Difluoro-1-oxo-1,2-dihydroisoquinolin-4-yl)ethyl)-N-methylbenzofuran-2-carboxamide] | 17 µM | –
4 | CC(c1c[nH]c(=O)c2cc(F)c(F)cc12)N(C)C(=O)c1cc2cc(F)c(F)cc2[nH]1 (single isomer, unassigned) [Compound 16, N-(1-(6,7-Difluoro-1-oxo-1,2-dihydroisoquinolin-4-yl)ethyl)-5,6-difluoro-N-methyl-1H-indole-2-carboxamide] | 0.01 µM | –
5 | C[C@H](c1c[nH]c(=O)c2ccccc12)N(C)C(=O)c1ccc(C(F)(F)F)cc1 [Compound 147, (R)-N-Methyl-N-(1-(1-oxo-1,2-dihydroisoquinolin-4-yl)ethyl)-4-(trifluoromethyl)benzamide] | – | EC50 [2]: 0.16 µM
6 | C[C@H](c1c[nH]c(=O)c2ccccc12)N(C)C(=O)c1cc2ccccn2c1 [Compound 152, (R)-N-Methyl-N-(1-(1-oxo-1,2-dihydroisoquinolin-4-yl)ethyl)indolizine-2-carboxamide] | – | EC50 (Hepatitis B virus, HepDE19, 168 h, read-out: DE-19bDNA EC50 (μM), HepDE19 cells, 7 day incubation, rcDNA measured by Quantigene 2.0 bDNA assay, top concentration 25 μM): 0.47 µM
7 | C[C@H](c1c[nH]c(=O)c2ccccc12)N(C)C(=O)c1cc2ccccc2[nH]1 [Compound 155, (R)-N-Methyl-N-(1-(1-oxo-1,2-dihydroisoquinolin-4-yl)ethyl)-1H-indole-2-carboxamide] | – | EC50 [2]: 0.17 µM
8 | CCN(C(=O)c1cc2ccccc2[nH]1)C(C)c1c[nH]c(=O)c2cc(F)c(F)cc12 (single isomer, unassigned) [Compound 6, N-(1-(6,7-Difluoro-1-oxo-1,2-dihydroisoquinolin-4-yl)ethyl)-N-ethyl-1H-indole-2-carboxamide] | 0.01 µM | –
9 | CC(c1c[nH]c(=O)c2c(F)c(F)ccc12)N(C)C(=O)C1Cc2c(F)cc(F)cc2N1 (stereo not drawn) [Compound 68, N-(1-(7,8-Difluoro-1-oxo-1,2-dihydroisoquinolin-4-yl)ethyl)-4,6-difluoro-N-methylindoline-2-carboxamide] | 0.2 µM | –
10 | CC(c1c[nH]c(=O)c2cc(F)c(F)cc12)N(C)C(=O)c1ccc2c(ccn2C)c1 (single isomer, unassigned) [Compound 140, N-(1-(6,7-difluoro-1-oxo-1,2-dihydroisoquinolin-4-yl)ethyl)-N,1-dimethyl-1H-indole-5-carboxamide] | 0.12 µM | –
11 | CC(c1c[nH]c(=O)c2cc(F)c(F)cc12)N(C)C(=O)c1cc2ccc(F)cc2[nH]1 (single isomer, unassigned) [Compound 11, N-(1-(6,7-Difluoro-1-oxo-1,2-dihydroisoquinolin-4-yl)ethyl)-6-fluoro-N-methyl-1H-indole-2-carboxamide] | 1.2 µM | –
12 | CC(c1c[nH]c(=O)c2cc(F)c(F)cc12)N(C)C(=O)C1Nc2ccccc2C1(C)C (stereo not drawn) [Compound 113, N-(1-(6,7-Difluoro-1-oxo-1,2-dihydroisoquinolin-4-yl)ethyl)-N,3,3-trimethylindoline-2-carboxamide] | ≥ 25 µM | –
13 | CC(c1c[nH]c(=O)c2cc(F)c(F)cc12)N(C)C(=O)c1cc2cccc(F)c2[nH]1 (single isomer, unassigned) [Compound 14, N-(1-(6,7-Difluoro-1-oxo-1,2-dihydroisoquinolin-4-yl)ethyl)-7-fluoro-N-methyl-1H-indole-2-carboxamide] | 0.02 µM | –
14 | CC(c1c[nH]c(=O)c2cc(F)c(F)cc12)N(C)C(=O)c1nc2ccccc2[nH]1 (single isomer, unassigned) [Compound 23, N-(1-(6,7-Difluoro-1-oxo-1,2-dihydroisoquinolin-4-yl)ethyl)-N-methyl-1H-benzo[d]imidazole-2-carboxamide] | ≥ 25 µM | –
15 | CC(c1c[nH]c(=O)c2cc(F)c(F)cc12)N(C)C(=O)c1cc2ccccc2n1C (single isomer, unassigned) [Compound 43, N-(1-(6,7-Difluoro-1-oxo-1,2-dihydroisoquinolin-4-yl)ethyl)-N,1-dimethyl-1H-indole-2-carboxamide] | 4.3 µM | –
16 | C[C@H](c1c[nH]c(=O)c2ccccc12)N(C)C(=O)c1cc2c(F)cc(F)cc2[nH]1 [Compound 158, (R)-4,6-Difluoro-N-methyl-N-(1-(1-oxo-1,2-dihydroisoquinolin-4-yl)ethyl)-1H-indole-2-carboxamide] | – | EC50 [2]: 0.13 µM
17 | CC(c1c[nH]c(=O)c2cc(F)c(F)cc12)N(C)C(=O)c1nc2ccccc2[nH]1 (single isomer, unassigned) [Compound 24, N-(1-(6,7-Difluoro-1-oxo-1,2-dihydroisoquinolin-4-yl)ethyl)-N-methyl-1H-benzo[d]imidazole-2-carboxamide] | 0.76 µM | –
18 | CC(c1c[nH]c(=O)c2c(F)c(F)ccc12)N(C)C(=O)c1cc2c(Cl)cccn2c1 (single isomer, unassigned) [Compound 93, 8-Chloro-N-(1-(7,8-difluoro-1-oxo-1,2-dihydroisoquinolin-4-yl)ethyl)-N-methylindolizine-2-carboxamide] | 0.04 µM | –
19 | CC(c1c[nH]c(=O)c2cc(F)c(F)cc12)N(C)C(=O)c1cc2cc(Cl)ccn2c1 (single isomer, unassigned) [Compound 96, 7-Chloro-N-(1-(6,7-difluoro-1-oxo-1,2-dihydroisoquinolin-4-yl)ethyl)-N-methylindolizine-2-carboxamide] | 4.6 µM | –
20 | COc1ncc(C(C)N(C)C(=O)[C@@H]2Cc3ccccc3N2)c2cc(F)c(F)cc12 (single isomer, unassigned) [Compound 182] | 24.7 µM | –
21 | CC(c1c[nH]c(=O)c2cc(F)c(F)cc12)N(C)C(=O)c1cc2ccccc2n1C (single isomer, unassigned) [Compound 44, N-(1-(6,7-Difluoro-1-oxo-1,2-dihydroisoquinolin-4-yl)ethyl)-N,1-dimethyl-1H-indole-2-carboxamide] | 0.3 µM | –
22 | CC(c1c[nH]c(=O)c2cc(F)c(F)cc12)N(C)C(=O)c1ccccc1 (single isomer, unassigned) [Compound 128, N-(1-(6,7-Difluoro-1-oxo-1,2-dihydroisoquinolin-4-yl)ethyl)-N-methylbenzamide] | – | EC50 (read-out: DE-19bDNA EC50, HepDE19 cells, 7 day incubation, rcDNA measured by Quantigene 2.0 bDNA assay, top concentration 25 μM): > 25 µM
23 | CC(c1c[nH]c(=O)c2cc(F)c(F)cc12)N(C)C(=O)c1ccc(C(F)(F)F)cc1 (single isomer, unassigned) [Compound 130, N-(1-(6,7-Difluoro-1-oxo-1,2-dihydroisoquinolin-4-yl)ethyl)-N-methyl-4-(trifluoromethyl) benzamide] | 0.02 µM | –
24 | CC(c1c[nH]c(=O)c2cc(F)c(F)cc12)N(C)C(=O)c1cc2c(F)cc(F)cc2[nH]1 (single isomer, unassigned) [Compound 17, N-(1-(6,7-Difluoro-1-oxo-1,2-dihydroisoquinolin-4-yl)ethyl)-4,6-difluoro-N-methyl-1H-indole-2-carboxamide] | 2.5 µM | –
